Measured values published in ChEMBL document CHEMBL1153049, “Identification of aminoethyl pyrrolo dihydroisoquinolinones as novel poly(ADP-ribose) polymerase-1 inhibitors” (Bioorg Med Chem Lett, 2009).
pIC50: −log10 of the molar value. The source made the active and inactive calls. The rule behind the calls is not given here.

Key:
[1] = target: T1, Protein mono-ADP-ribosyltransferase PARP3 (Homo sapiens) (UniProt Q9Y6F1); experiment: Inhibition of human PARP3 up to 500 nM
T1 sequence (whole entry): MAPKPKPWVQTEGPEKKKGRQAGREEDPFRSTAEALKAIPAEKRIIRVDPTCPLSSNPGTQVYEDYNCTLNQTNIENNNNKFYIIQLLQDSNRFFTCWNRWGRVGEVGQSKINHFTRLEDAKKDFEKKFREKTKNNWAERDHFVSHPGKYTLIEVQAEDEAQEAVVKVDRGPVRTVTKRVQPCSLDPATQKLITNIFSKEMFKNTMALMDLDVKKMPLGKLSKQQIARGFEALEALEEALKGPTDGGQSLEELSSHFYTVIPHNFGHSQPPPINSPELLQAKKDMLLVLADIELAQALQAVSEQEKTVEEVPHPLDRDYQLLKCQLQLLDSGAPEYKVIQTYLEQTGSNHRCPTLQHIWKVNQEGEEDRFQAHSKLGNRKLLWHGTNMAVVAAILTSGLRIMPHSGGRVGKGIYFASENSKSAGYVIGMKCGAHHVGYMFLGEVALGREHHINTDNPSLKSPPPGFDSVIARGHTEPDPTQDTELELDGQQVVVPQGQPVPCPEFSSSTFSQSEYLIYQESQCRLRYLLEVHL

[2] = target: Protein mono-ADP-ribosyltransferase PARP4 (Homo sapiens) (UniProt Q9UKK3); experiment: Inhibition of human vPARP catalytic domain expressed in Escherichia coli up to 500 nM
Sequence of Protein mono-ADP-ribosyltransferase PARP4 (Homo sapiens) (Q9UKK3 whole entry, the tested form may be a part): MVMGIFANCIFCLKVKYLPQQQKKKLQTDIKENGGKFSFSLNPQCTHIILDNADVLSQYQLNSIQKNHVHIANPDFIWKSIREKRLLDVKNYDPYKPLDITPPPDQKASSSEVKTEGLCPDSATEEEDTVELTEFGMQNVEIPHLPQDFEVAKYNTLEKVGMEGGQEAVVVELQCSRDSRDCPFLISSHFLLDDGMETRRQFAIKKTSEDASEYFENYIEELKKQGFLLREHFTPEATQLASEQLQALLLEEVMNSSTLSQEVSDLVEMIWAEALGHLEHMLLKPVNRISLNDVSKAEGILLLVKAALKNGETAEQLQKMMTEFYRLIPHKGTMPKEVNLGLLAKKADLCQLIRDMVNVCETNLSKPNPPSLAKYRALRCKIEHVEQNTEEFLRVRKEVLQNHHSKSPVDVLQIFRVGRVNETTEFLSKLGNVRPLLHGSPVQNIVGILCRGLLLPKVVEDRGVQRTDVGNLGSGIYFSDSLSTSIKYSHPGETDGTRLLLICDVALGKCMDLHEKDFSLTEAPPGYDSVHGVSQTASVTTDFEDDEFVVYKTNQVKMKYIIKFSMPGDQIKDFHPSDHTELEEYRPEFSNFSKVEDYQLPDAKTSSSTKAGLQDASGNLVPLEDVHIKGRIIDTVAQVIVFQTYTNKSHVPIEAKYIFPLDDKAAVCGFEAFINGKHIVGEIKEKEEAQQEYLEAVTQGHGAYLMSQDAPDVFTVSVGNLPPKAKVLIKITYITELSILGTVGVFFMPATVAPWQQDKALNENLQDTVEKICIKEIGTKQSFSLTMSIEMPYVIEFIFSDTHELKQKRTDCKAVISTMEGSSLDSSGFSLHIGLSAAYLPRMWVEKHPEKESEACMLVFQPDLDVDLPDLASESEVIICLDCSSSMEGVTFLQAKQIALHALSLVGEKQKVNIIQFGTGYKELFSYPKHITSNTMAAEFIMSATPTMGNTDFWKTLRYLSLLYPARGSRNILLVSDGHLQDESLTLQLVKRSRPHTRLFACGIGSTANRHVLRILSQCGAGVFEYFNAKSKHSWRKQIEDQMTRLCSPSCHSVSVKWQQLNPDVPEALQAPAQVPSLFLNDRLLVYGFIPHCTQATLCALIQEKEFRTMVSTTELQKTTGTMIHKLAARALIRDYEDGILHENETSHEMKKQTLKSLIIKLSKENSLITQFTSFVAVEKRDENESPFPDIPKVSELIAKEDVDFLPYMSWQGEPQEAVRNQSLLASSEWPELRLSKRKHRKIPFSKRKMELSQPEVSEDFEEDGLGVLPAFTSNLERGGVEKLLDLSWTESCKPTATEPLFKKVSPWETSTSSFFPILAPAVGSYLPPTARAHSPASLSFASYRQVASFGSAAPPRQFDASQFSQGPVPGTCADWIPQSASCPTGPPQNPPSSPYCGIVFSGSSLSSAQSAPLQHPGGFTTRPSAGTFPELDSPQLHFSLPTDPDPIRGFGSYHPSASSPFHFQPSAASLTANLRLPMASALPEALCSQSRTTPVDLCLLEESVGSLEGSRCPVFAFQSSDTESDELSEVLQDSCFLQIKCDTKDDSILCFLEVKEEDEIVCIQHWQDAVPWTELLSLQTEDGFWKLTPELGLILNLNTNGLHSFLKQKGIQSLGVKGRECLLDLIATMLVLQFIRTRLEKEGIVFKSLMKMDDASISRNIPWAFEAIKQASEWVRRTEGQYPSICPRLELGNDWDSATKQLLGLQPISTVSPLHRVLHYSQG

[3] = target: T2, Poly [ADP-ribose] polymerase tankyrase-1 (Homo sapiens) (UniProt O95271); experiment: Inhibition of human tankyrase 1 catalytic domain expressed in Escherichia coli up to 500 nM
T2 sequence (whole entry): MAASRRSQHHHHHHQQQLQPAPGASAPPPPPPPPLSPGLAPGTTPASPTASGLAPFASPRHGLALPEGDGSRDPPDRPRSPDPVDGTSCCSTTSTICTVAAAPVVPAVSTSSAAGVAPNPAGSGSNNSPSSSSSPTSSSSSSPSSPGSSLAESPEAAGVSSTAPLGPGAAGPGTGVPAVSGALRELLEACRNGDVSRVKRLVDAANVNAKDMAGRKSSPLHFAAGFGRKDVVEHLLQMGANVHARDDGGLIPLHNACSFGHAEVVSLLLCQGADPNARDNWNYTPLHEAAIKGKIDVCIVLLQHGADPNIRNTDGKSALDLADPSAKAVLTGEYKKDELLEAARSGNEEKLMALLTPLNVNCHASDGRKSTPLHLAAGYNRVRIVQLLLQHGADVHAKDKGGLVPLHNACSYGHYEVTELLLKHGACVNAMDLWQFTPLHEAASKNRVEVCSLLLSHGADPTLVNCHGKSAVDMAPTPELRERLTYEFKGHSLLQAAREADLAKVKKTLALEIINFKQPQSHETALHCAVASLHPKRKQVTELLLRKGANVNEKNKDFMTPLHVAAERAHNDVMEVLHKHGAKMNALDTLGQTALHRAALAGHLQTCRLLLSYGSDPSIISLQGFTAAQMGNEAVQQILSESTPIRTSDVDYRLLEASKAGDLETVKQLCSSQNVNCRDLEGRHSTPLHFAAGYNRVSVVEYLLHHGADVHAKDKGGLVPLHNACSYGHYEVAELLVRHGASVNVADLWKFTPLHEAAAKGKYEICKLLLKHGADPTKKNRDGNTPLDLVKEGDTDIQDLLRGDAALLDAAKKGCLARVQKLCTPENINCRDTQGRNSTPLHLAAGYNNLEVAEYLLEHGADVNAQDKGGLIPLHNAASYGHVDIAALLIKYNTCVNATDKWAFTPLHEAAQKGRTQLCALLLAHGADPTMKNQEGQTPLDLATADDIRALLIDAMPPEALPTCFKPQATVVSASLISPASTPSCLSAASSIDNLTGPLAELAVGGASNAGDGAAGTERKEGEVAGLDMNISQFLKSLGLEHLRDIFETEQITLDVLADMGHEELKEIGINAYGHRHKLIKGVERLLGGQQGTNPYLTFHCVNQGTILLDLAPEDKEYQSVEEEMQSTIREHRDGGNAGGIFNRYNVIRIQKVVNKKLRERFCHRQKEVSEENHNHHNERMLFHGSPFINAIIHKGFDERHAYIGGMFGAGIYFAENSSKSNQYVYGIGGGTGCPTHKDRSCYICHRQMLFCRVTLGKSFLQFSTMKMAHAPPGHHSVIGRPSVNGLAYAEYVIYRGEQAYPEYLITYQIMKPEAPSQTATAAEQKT

[4] = target: Poly [ADP-ribose] polymerase 2 (Homo sapiens, UniProt Q9UGN5); experiment: Inhibition of human PARP2 expressed in baculovirus system
Sequence of Poly [ADP-ribose] polymerase 2 (Q9UGN5 whole entry): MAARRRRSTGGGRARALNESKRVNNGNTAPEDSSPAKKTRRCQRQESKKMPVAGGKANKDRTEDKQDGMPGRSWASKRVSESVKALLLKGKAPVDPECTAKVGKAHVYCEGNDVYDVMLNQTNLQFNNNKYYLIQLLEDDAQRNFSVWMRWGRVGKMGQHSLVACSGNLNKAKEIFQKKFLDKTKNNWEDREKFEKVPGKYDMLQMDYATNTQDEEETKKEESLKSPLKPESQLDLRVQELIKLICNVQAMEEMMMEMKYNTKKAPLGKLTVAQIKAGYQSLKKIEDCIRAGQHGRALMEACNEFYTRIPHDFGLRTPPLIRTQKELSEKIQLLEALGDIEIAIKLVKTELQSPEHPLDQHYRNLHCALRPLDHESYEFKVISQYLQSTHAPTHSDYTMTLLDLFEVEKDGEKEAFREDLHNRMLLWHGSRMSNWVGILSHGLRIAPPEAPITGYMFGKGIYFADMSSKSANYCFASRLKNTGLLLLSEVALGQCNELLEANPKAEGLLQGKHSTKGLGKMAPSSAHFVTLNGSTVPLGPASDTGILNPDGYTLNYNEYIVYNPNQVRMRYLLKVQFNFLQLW

[5] = target: Poly [ADP-ribose] polymerase 1 (Homo sapiens, UniProt P09874)
Sequence of Poly [ADP-ribose] polymerase 1 (P09874 whole entry): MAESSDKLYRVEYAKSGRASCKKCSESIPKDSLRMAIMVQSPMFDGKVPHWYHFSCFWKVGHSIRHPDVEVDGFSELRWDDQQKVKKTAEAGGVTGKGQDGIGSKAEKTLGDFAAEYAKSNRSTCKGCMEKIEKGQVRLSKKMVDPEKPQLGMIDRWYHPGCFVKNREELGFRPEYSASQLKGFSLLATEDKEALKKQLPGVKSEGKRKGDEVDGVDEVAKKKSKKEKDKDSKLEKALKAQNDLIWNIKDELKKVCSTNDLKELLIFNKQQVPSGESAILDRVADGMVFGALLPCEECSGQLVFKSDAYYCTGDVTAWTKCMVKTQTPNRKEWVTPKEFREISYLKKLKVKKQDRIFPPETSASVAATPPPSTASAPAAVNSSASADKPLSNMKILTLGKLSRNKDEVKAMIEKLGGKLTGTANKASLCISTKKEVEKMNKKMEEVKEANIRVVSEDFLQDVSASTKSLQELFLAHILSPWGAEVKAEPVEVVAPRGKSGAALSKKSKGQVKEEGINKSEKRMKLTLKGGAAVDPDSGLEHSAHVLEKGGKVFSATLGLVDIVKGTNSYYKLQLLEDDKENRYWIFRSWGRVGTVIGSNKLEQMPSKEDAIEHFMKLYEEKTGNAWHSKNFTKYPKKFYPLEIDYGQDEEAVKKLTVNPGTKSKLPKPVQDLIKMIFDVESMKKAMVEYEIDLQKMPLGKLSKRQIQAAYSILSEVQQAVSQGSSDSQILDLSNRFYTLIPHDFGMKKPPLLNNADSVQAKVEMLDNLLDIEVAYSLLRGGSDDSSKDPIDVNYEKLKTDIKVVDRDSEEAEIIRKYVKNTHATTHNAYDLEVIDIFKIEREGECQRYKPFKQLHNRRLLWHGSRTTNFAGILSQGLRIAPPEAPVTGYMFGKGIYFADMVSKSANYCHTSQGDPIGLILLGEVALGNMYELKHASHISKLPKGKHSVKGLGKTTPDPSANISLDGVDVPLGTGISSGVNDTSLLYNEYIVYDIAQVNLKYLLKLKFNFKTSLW
Description: Inhibition of PARP1 in human HeLa cells by microplate scintillation counting

| Compound | inhibition [1] | inhibition [2] | inhibition [3] | pIC50 [4] | pIC50 [5] |
| --- | --- | --- | --- | --- | --- |
| O=C1NCCc2c1ccc1[nH]cc(CCNC(=O)N3CCCNCC3)c21 | inactive | inactive | inactive | 7.77 | 7.57 |
| O=C1NCCc2c1ccc1[nH]cc(CCNCc3cccc4cccnc34)c21 | – | – | – | – | < 6.30 |
| Cn1cc(CNCCc2c[nH]c3ccc4c(c23)CCNC4=O)cn1 | – | – | – | – | < 6.30 |
| O=C1NCCc2c1ccc1[nH]cc(CCNC(=O)N3CCNCC3)c21 | inactive | inactive | inactive | 7.49 | 7.60 |
